Measurements taken from patent publication US9376663B2, “GPR15-mediated homing and uses thereof” (New York University, priority 2013, dated 2016).

What was measured:
[1] = target: T1, inducible caspase 9 (iCasp9) (Homo sapiens, UniProt P55211+P62942, F37V); settings: patients wherein GVHD developed; cited from earlier work
T1 construct: human caspase 9 (fusion partner in the same polypeptide)

GPR15 expression = assay: In vitro stimulation of T cells to examine GFP (GPR15 reporter) induction; type: cell-based, mouse; settings: various concentration of retinoic acid with IL-2 only, 3 days, CD4+ Tnaive and Tregs from Gpr15gfp/+ Foxp3ires-mrfp mice
Method: All T cell cultures were done in RPMI-10. CD4^+ Tnaive (CD62L^hiCD44^loCD25^−mRFP^− GFP^−), Tregs with naive phenotype (CD62L^hiCD44^loCD25^+mRFP^+ GFP^−), Tmemory (CD62L^loCD44^hiCD25^−mRFP^− GFP^−), and Tregs with memory phenotype (CD62L^loCD44^hiCD25^+mRFP^+ GFP^−) were sorted from Gpr15^gfp/+ Foxp3^ires-mrfp mice. Sorted cells were stimulated with 0.25 μg/ml αCD3ε (145-2c11, ATCC) and 1 μg/ml of αCD28 antibodies (37.51, eBiosciences) cross-linked by plate-bound α-hamster IgG in the presence of human IL-2 (100 U/ml) alone, or additionally with IL-21 (10 ng/ml, R&D systems) or IL-6 (20 ng/ml, Peprotech), or IL-27 (20 ng/ml, eBioscience) in the presence of varying concentrations of human TGF-β1 (αTGFβ blocking antibody [R&D systems], or 0, 0.5 ng/ml, or 5 ng/ml TGF-β1 [Peprotech]) for 3 days. The same conditions were used for retinoic acid (Sigma-Aldrich) treatment with IL-2 only.

[2] = system: homing of T cells to the large intestine lamina propria (LILP); assay: Short-term competitive homing assay; type: in vivo, mouse; settings: GPR15+ cells treated before transfer, co-transfer with untreated control-transduced cells
Method: The coding region of mouse GPR15 was cloned into the MSCV-IRES-Thy1.1 retroviral construct (38). Retroviruses were generated by transient transfection of Phoenix cells. CD4^+ CD62L^highCD44^lowCD25^− Tnaive cells were sorted by FACS Aria IIu (BD Biosciences) and stimulated with 0.25 μg/ml of αCD3ε (145-2c11, ATCC) and 1 μg/ml of αCD28 (37.51, eBiosciences) antibodies cross-linked by plate-bound α-hamster IgG (MP Biochemical) in RPMI-10. At day 1 and day 2 after stimulation, cells were transduced with retrovirus (spinning at 850 g for 2 h with 4 μg/ml of polybrene). CD4^+ Tnaive cells from B6. SJL-Ptprc^aPep3^b/BoyJ (The Jackson Laboratory) were used for transduction of Gpr15 and CD4^+ Tnaive cells from C57BL/6 were used for transduction of empty vector. At day 3, cells were washed and plated again only with 100 U/ml of IL-2. At day 5, live cells were harvested by lymphocyte-M (Cedarlane). The congenic cells were mixed at a 1:1 ratio and 20-30 million mixed cells in total were transferred intravenously into the recipient mice (C57BL/6). Migration of donor cells into each organ was determined at 10 h after transfer (unless specified) by flow cytometry analysis. All donor cells expressed THY1.1 and GPR15-expressing cells and control cells expressed CD45.1 and CD45.2, respectively. […]

T1 sequence (P62942+P55211 fused P62942:F37V): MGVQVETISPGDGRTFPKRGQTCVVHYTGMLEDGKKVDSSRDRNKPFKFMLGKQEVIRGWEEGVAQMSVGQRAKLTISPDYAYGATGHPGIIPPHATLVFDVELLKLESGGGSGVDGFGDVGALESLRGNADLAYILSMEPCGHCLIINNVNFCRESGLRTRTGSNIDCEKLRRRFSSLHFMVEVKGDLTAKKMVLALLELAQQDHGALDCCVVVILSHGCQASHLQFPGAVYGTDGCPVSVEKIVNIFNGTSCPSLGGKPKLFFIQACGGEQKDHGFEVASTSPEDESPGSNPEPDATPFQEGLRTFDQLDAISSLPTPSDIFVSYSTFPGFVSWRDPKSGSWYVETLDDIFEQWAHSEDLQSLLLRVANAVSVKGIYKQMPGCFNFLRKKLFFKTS

CC[C@H](C(=O)N1CCCC[C@H]1C(=O)O[C@H](CCc1ccc(OC)c(OC)c1)c1cccc(OCC(=O)NCCNC(=O)COc2cccc([C@@H](CCc3ccc(OC)c(OC)c3)OC(=O)[C@@H]3CCCCN3C(=O)[C@@H](CC)c3cc(OC)c(OC)c(OC)c3)c2)c1)c1cc(OC)c(OC)c(OC)c1 [AP1903]
elimination of the transplanted genetically modified T cells [1]: greater than 90%

CC1=C(/C=C/C(C)=C/C=C/C(C)=C/C(=O)O)C(C)(C)CCC1 [Retinoic acid]
GPR15 induction (GFP reporter) (GPR15 expression): does not induce GPR15 expression | GPR15 induction (GFP reporter) (GPR15 expression; listed as RA): not induced

pertussis toxin
enrichment of Gpr15-transduced cells in the LILP after treatment of the cells before transfer [2]: no longer enriched in the LILP
